Data published in article PMC8587043, “An Investigation into the Interaction between Double Hydroxide-Based Antioxidant Benzophenone Derivatives and Cyclooxygenase 2” (Molecules, 2021).

Test system: EA.hy926 cells
Assay: Cytotoxicity of compound SC2, MTT assay
Assay type: cell-based, human
Protocol: The cytotoxicity of compound SC2 on EA.hy926 cells was detected by 3-(4,5-dimethyl-2-thiazolyl)-2,5-diphenyl-2-H-tetrazolium bromide (MTT) assay.
Compound SC2 stock solutions were prepared in DMSO. The stock solutions were diluted with FBS free DMEM to different target concentrations (DMSO concentrations ≤ 0.5% v:v). Cells (100 μL, 2 × 10^5 cells∙mL^−1) were seeded on 96-well plates and cultured for 24 h. The medium was then replaced with fresh media containing H2O2 with different concentrations (0, 100, 200, 300, 400, 500, and 600 μmol·L^−1 in FBS free DMEM) and compound SC2 (50, 40, 30, 20, 10 µmol·L^−1), which were transferred to the incubator and cultured for additional time (2, 4, and 6 h). The medium was then replaced with 100 μL of FBS free DMEM and MTT (10 μL, 5 mg·mL^−1 in PBS) and after 4 h the medium was replaced with DMSO (100 μL). A microplate reader (SpectraMaxPlus384, Molecular Devices, United States) was used to record the absorbance at 490 nm for each well of the plates. Cell viability was measured via MTT assay. Survival rate (%) = (Asample group/Acontrol group) × 100%.

Structure (SMILES): CC(C)(C)c1ccc(C(=O)c2c(Cl)cc(O)c(O)c2O)cc1 [SC2]
- cell survival rate compared with control group (concentrations less than 30 µmol·L^−1): not significantly different
- effect on cells at concentration used in cell-based experiments (less than 10 µmol·L^−1): harmless to cells
